# Results published in article PMC10082216 (Nature Communications, 2023).
# Test system: healthy subjects
# Assay: TD-6450 phase I clinical study (SAD/MAD): safety and tolerability
# Type: in vivo, human
# Text: This was a phase I, double-blinded, randomized, placebo-controlled, Single Ascending Dose (SAD) and Multiple Ascending Dose (MAD) study to evaluate the safety and tolerability of TD-6450 in healthy subjects (primary objective) and the pharmacokinetics (secondary objective). The study is available in the website clinicaltrial.gov (identifier NCT02022306), it started on February the 4th 2014 (first subject enrolled) and was concluded on August the 18th 2014 (last subject concluded), in the Healthcare Discoveries (a subsidiary of ICON Development Solutions) in San Antonio, Texas, USA. Healthy, non-smoking subjects with no history of significant medical conditions, with a BMI included between 18 and 30 kg/m^2, who weight at least 50 kg, between 18 and 60 years old, were selected for this study. Subjects were able and willing to give an informed consent. No bias was reported in the selection process. The protocol and all amendments for this study and all accompanying material that was provided to subjects (including advertisements, subject’s information sheets, and descriptions of the study used to obtain informed consent) were submitted by the investigator to the centralized Institutional Review Board (IRB), namely the IntegReview, established in 1999 at Austin (Texas, U.S.A.) and acquired by Advarra in 2020. Documented approval was obtained before the study was started, on March the 28th 2014. This study was conducted in accordance with the protocol, the principles of the International Conference on Harmonization of Technical Requirements for Registration of Pharmaceuticals for Human Use (ICH) Guideline for Good Clinical Practice (GCP), the United States Code of Federal Regulations, the principles of the World Medical Association Declaration of Helsinki, Ethical Principles for Medical Research Involving Human Subjects, and all applicable regulatory requirement.
# Primary and secondary outcomes were pre-defined as follows: Safety and tolerability as a primary outcome, pharmacokinetics as a secondary outcome. Safety and tolerability were evaluated using standard measures, including adverse event (AE) monitoring, clinical laboratory tests (hematology, serum chemistry, coagulation, and urinalysis), vital signs, physical examinations, and 12-lead electrocardiograms (ECGs). […] Pharmacokinetics were evaluated by the collection of blood samples from each subject at following time points: predose (within 30 min before dosing, only in day 1 60 min before dosing), and 0.5,1,2,3,4,6,8 and 12 hours after dosing.
# This study was conducted in two parts, Part A (SAD) and Part B (MAD). For the Part A, the age of enrolled subjects ranged from 20 to 60 years, with a mean age range of 32.1 to 46.2 years. Most subjects were male (73 total subjects) and most were white (55 subjects) or black (22 subjects). For Part B of the study, ages ranged from 23 to 60 years with a similar mean age across treatment groups. Most subjects were male (25 total subjects) and all were either white (18 subjects) or black (12 subjects). For each part of the study, the mean body mass index (BMI) and creatinine clearance were similar across treatment groups. […] Part A: Healthy subjects were sequentially enrolled and randomly assigned to each dose cohort (up to 10 dose-ascending cohorts were planned, including a fed arm in the food effect cohort) to receive either a single dose of TD-6450 or placebo. For each dose cohort, 8 subjects were randomized in a 3:1 ratio (6 subjects received TD-6450 and 2 subjects received placebo). The starting dose of TD-6450 was 0.5 mg with a planned maximum dose of 1000 mg. Upon review of the 500-mg cohort PK data, the decision was made to not escalate to the 1000-mg cohort because of exposure saturation at ≥ 500 mg. The following doses were administered: 0.5 mg, 1.5 mg, 5 mg, 15 mg, 30 mg, 60 mg, 120 mg, 240 mg, and 500 mg. […]
smiles,measurement,setting,value
CNC(=O)N1C[C@@H](C)N(c2ccc(C(=O)Nc3ccc(-c4ccc(-c5c[nH]c([C@@H]6CCCN6C(=O)[C@@H](NC(=O)OC)C(C)C)n5)cc4)c(OC(F)(F)F)c3)cn2)C[C@@H]1C [TD-6450],At least one AE N (%),MAD 60 mg once daily 14 days,4 (50.0) N (%)
same,At least one SAE N (%),MAD 60 mg once daily 14 days,0 (0.0) N (%)
same,Death N (%),MAD 60 mg once daily 14 days,0 (0.0) N (%)
same,Discontinuation due to an AE N (%),MAD 60 mg once daily 14 days,0 (0.0) N (%)
same,At least one AE N (%),MAD 120 mg once daily 14 days,3 (37.5) N (%)
same,At least one SAE N (%),MAD 120 mg once daily 14 days,0 (0.0) N (%)
same,Death N (%),MAD 120 mg once daily 14 days,0 (0.0) N (%)
same,Discontinuation due to an AE N (%),MAD 120 mg once daily 14 days,0 (0.0) N (%)
same,At least one AE N (%),MAD 240 mg once daily 14 days,3 (37.5) N (%)
same,At least one SAE N (%),MAD 240 mg once daily 14 days,0 (0.0) N (%)
same,Death N (%),MAD 240 mg once daily 14 days,0 (0.0) N (%)
same,Discontinuation due to an AE N (%),MAD 240 mg once daily 14 days,0 (0.0) N (%)
same,At least one AE N (%),SAD 0.5 mg,3 (50.0) N (%)
same,At least one SAE N (%),SAD 0.5 mg,0 (0.0) N (%)
same,Death N (%),SAD 0.5 mg,0 (0.0) N (%)
same,Discontinuation due to an AE N (%),SAD 0.5 mg,0 (0.0) N (%)
same,At least one AE N (%),SAD 1.5 mg,3 (50.0) N (%)
same,At least one SAE N (%),SAD 1.5 mg,0 (0.0) N (%)
same,Death N (%),SAD 1.5 mg,0 (0.0) N (%)
same,Discontinuation due to an AE N (%),SAD 1.5 mg,0 (0.0) N (%)
same,At least one AE N (%),SAD 5 mg,0 (0.0) N (%)
same,At least one SAE N (%),SAD 5 mg,0 (0.0) N (%)
same,Death N (%),SAD 5 mg,0 (0.0) N (%)
same,Discontinuation due to an AE N (%),SAD 5 mg,0 (0.0) N (%)
same,At least one AE N (%),SAD 15 mg,1 (16.7) N (%)
same,At least one SAE N (%),SAD 15 mg,0 (0.0) N (%)
same,Death N (%),SAD 15 mg,0 (0.0) N (%)
same,Discontinuation due to an AE N (%),SAD 15 mg,0 (0.0) N (%)
same,At least one AE N (%),SAD 30 mg,1 (16.7) N (%)
same,At least one SAE N (%),SAD 30 mg,0 (0.0) N (%)
same,Death N (%),SAD 30 mg,0 (0.0) N (%)
same,Discontinuation due to an AE N (%),SAD 30 mg,0 (0.0) N (%)
same,At least one AE N (%),SAD 60 mg,0 (0.0) N (%)
same,At least one SAE N (%),SAD 60 mg,0 (0.0) N (%)
same,Death N (%),SAD 60 mg,0 (0.0) N (%)
same,Discontinuation due to an AE N (%),SAD 60 mg,0 (0.0) N (%)
same,At least one AE N (%),SAD 120 mg,1 (16.7) N (%)
same,At least one SAE N (%),SAD 120 mg,0 (0.0) N (%)
same,Death N (%),SAD 120 mg,0 (0.0) N (%)
same,Discontinuation due to an AE N (%),SAD 120 mg,0 (0.0) N (%)
same,At least one AE N (%),SAD 240 mg,0 (0.0) N (%)
same,At least one SAE N (%),SAD 240 mg,0 (0.0) N (%)
same,Death N (%),SAD 240 mg,0 (0.0) N (%)
same,Discontinuation due to an AE N (%),SAD 240 mg,0 (0.0) N (%)
same,At least one AE N (%),SAD 500 mg,2 (33.3) N (%)
same,At least one SAE N (%),SAD 500 mg,0 (0.0) N (%)
same,Death N (%),SAD 500 mg,0 (0.0) N (%)
same,Discontinuation due to an AE N (%),SAD 500 mg,0 (0.0) N (%)
same,severe adverse events in Phase 1 study,single or multiple doses,no severe adverse events
